From US9840510B1, “Pyrazolo[1,5-a]pyrimidinyl carboxamide compounds and their use in the treatment of medical disorders” (Lysosomal Therapeutics Inc., priority 2016, dated 2017)
Converted amounts (≈) assume the structure as drawn.

Assay: Compound solubility in water
Assay type: physicochemical

SMILES	solubility [µg/mL]	Compound Solubility in Water [µg/mL]
Cc1cc(-c2cccnc2)nc2c(C(=O)N[C@@H](C3CC3)C(F)(F)F)cnn12 [III-89]	10.4 (≈ 27.7 µM)	–
COc1cccc(-c2cc(C)n3ncc(C(=O)N[C@H](C)C(F)(F)F)c3n2)c1 [III-90]	2 (≈ 5.29 µM)	–
COc1cccc(-c2cc(C)n3ncc(C(=O)N[C@@H](C)C(F)(F)F)c3n2)c1 [III-91]	1.7 (≈ 4.49 µM)	–
Cc1cc(-c2cccc(F)c2)nc2c(C(=O)N[C@H](C)C3CC3)cnn12 [III-92]	0.2 (≈ 0.591 µM)	–
Cc1cc(N2CCCC(F)(F)C2)nc2c(C(=O)N[C@H](C3CC3)C(F)(F)F)cnn12 [III-94]	0.6 (≈ 1.44 µM)	–
Cc1cc(N2CCCC(F)(F)C2)nc2c(C(=O)N[C@@H](C3CC3)C(F)(F)F)cnn12 [III-95]	1 (≈ 2.4 µM)	–
C#CC(NC(=O)c1cnn2c(C)cc(-c3cccc(OC)c3)nc12)C(F)(F)F (stereo not shown) [III-96]	2 (≈ 5.15 µM)	–
COc1ccc(F)c(-c2cc(C)n3ncc(C(=O)N[C@H](C)C(F)(F)F)c3n2)c1 [III-97]	0.2 (≈ 0.505 µM)	–
COc1ccc(F)c(-c2cc(C)n3ncc(C(=O)N[C@@H](C)C(F)(F)F)c3n2)c1 [III-98]	0.3 (≈ 0.757 µM)	–
C#CC(NC(=O)c1cnn2c(C)cc(-c3cccc(Cl)c3)nc12)C(F)(F)F (stereo not shown) [III-99]	0.2 (≈ 0.509 µM)	–
Cc1cc(-c2ccns2)nc2c(C(=O)N[C@H](C3CC3)C(F)(F)F)cnn12 [III-100]	0.9 (≈ 2.36 µM)	–
Cc1cc(-c2ccns2)nc2c(C(=O)N[C@@H](C3CC3)C(F)(F)F)cnn12 [III-101]	1.3 (≈ 3.41 µM)	–
Cc1cc(-c2cccc(-c3ncc[nH]3)c2)nc2c(C(=O)NC(C3CC3)C(F)(F)F)cnn12 (stereo not shown) [III-102]	0.4 (≈ 0.908 µM)	–
Cc1cc(-c2cccc(Oc3ncccn3)c2)nc2c(C(=O)NC(C3CC3)C(F)(F)F)cnn12 (stereo not shown) [III-103]	0.8 (≈ 1.71 µM)	–
Cc1cc(-c2cccc3ncoc23)nc2c(C(=O)NC(C3CC3)C(F)(F)F)cnn12 (stereo not shown) [III-104]	0.02 (≈ 0.0481 µM)	–
Cc1cc(-c2cccc3ocnc23)nc2c(C(=O)NC(C3CC3)C(F)(F)F)cnn12 (stereo not shown) [III-106]	0.1 (≈ 0.241 µM)	–
Cc1cc(-n2ccc(Cl)n2)nc2c(C(=O)NC(C3CC3)C(F)(F)F)cnn12 (stereo not shown) [III-107]	0.1 (≈ 0.251 µM)	–
Cc1cc(-c2ccc3ocnc3c2)nc2c(C(=O)NC(C3CC3)C(F)(F)F)cnn12 (stereo not shown) [III-108]	–	0.3
Cc1cc(-c2ccc3ocnc3c2)nc2c(C(=O)N[C@H](C3CC3)C(F)(F)F)cnn12 [III-109]	0.5 (≈ 1.2 µM)	–
Cc1cc(-c2ccc3ocnc3c2)nc2c(C(=O)N[C@@H](C3CC3)C(F)(F)F)cnn12 [III-110]	0.4 (≈ 0.963 µM)	–
Cc1cc(-c2cccc(F)c2)nc2c(C(=O)NC(C3CC3)C(F)(F)F)cnn12 (stereo not shown) [III-111]	0.07 (≈ 0.178 µM)	–
Cc1cc(-c2ccc(F)nc2)nc2c(C(=O)NC(C3CC3)C(F)(F)F)cnn12 (stereo not shown) [III-112]	–	0.8
Cc1cc(-c2cccnc2F)nc2c(C(=O)NC(C3CC3)C(F)(F)F)cnn12 (stereo not shown) [III-113]	–	1.0
Cc1cc(-c2cccnc2F)nc2c(C(=O)N[C@H](C3CC3)C(F)(F)F)cnn12 [III-114]	2.1 (≈ 5.34 µM)	–
Cc1cc(-c2cccnc2F)nc2c(C(=O)N[C@@H](C3CC3)C(F)(F)F)cnn12 [III-115]	1.9 (≈ 4.83 µM)	–
Cc1cc(-c2ccc(Cl)nc2)nc2c(C(=O)NC(C3CC3)C(F)(F)F)cnn12 (stereo not shown) [III-116]	1 (≈ 2.44 µM)	–

SMILES	solubility [µg/mL]	Compound Solubility in Water [µg/mL]
Cc1cc(-c2ccc(Cl)nc2)nc2c(C(=O)N[C@H](C3CC3)C(F)(F)F)cnn12 [III-117]	0.8 (≈ 1.95 µM)	–
Cc1cc(-c2cncc(Cl)c2)nc2c(C(=O)NC(C3CC3)C(F)(F)F)cnn12 (stereo not shown) [III-119]	0.08 (≈ 0.195 µM)	–
Cc1cc(-c2cncc(Cl)c2)nc2c(C(=O)N[C@H](C3CC3)C(F)(F)F)cnn12 [III-120]	0.7 (≈ 1.71 µM)	–
Cc1cc(-c2cncc(Cl)c2)nc2c(C(=O)N[C@@H](C3CC3)C(F)(F)F)cnn12 [III-121]	0.7 (≈ 1.71 µM)	–
Cc1cc(-c2cnccc2Cl)nc2c(C(=O)NC(C3CC3)C(F)(F)F)cnn12 (stereo not shown) [III-122]	2.1 (≈ 5.12 µM)	–
Cc1cc(-c2cccnc2Cl)nc2c(C(=O)NC(C3CC3)C(F)(F)F)cnn12 (stereo not shown) [III-123]	2.1 (≈ 5.12 µM)	–
Cc1cc(-c2cnccc2F)nc2c(C(=O)NC(C3CC3)C(F)(F)F)cnn12 (stereo not shown) [III-124]	1.9 (≈ 4.83 µM)	–
Cc1cc(-c2cncc(F)c2)nc2c(C(=O)NC(C3CC3)C(F)(F)F)cnn12 (stereo not shown) [III-125]	3.4 (≈ 8.64 µM)	–
Cc1cc(-c2cncc(F)c2)nc2c(C(=O)N[C@H](C3CC3)C(F)(F)F)cnn12 [III-126]	1.8 (≈ 4.58 µM)	–
Cc1cc(-c2cncc(F)c2)nc2c(C(=O)N[C@@H](C3CC3)C(F)(F)F)cnn12 [III-127]	2.5 (≈ 6.36 µM)	–
Cc1cc(-c2cc(F)cc(C#N)c2)nc2c(C(=O)N[C@@H](C)C3CC3)cnn12 [III-128]	3 (≈ 8.26 µM)	–
COc1cc(C#N)cc(-c2cc(C)n3ncc(C(=O)N[C@@H](C)C4CC4)c3n2)c1 [III-129]	0.02 (≈ 0.0533 µM)	–
Cc1cc(-c2cccc(Cl)n2)nc2c(C(=O)N[C@@H](C)C3CC3)cnn12 [III-131]	0.6 (≈ 1.69 µM)	–
Cc1cc(-c2cccc(C#N)n2)nc2c(C(=O)NC(C3CC3)C(F)(F)F)cnn12 (stereo not shown) [III-133]	0.2 (≈ 0.5 µM)	–
Cc1cc(-c2cccc(F)n2)nc2c(C(=O)N[C@@H](C)C3CC3)cnn12 [III-134]	0.8 (≈ 2.36 µM)	–
Cc1cc(-c2cccc(F)n2)nc2c(C(=O)N[C@H](C)C3CC3)cnn12 [III-135]	1.5 (≈ 4.42 µM)	–
Cc1cc(-c2ccccc2)nc2c(C(=O)N[C@@H](C)C3CC3)cnn12 [III-136]	5.1 (≈ 15.9 µM)	–
COc1cc(F)cc(-c2cc(C)n3ncc(C(=O)N[C@@H](C)C4CC4)c3n2)c1 [III-137]	0.8 (≈ 2.17 µM)	–
COc1c(F)cccc1-c1cc(C)n2ncc(C(=O)N[C@@H](C)C3CC3)c2n1 [III-138]	2.5 (≈ 6.79 µM)	–
COc1c(F)cccc1-c1cc(C)n2ncc(C(=O)NC(C3CC3)C(F)(F)F)c2n1 (stereo not shown) [III-139]	0.1 (≈ 0.237 µM)	–
COc1c(F)cccc1-c1cc(C)n2ncc(C(=O)NC(C)C(F)(F)F)c2n1 (stereo not shown) [III-140]	1.1 (≈ 2.78 µM)	–
COc1c(C#N)cccc1-c1cc(C)n2ncc(C(=O)NC(C3CC3)C(F)(F)F)c2n1 (stereo not shown) [III-141]	1.1 (≈ 2.56 µM)	–
COc1c(C#N)cccc1-c1cc(C)n2ncc(C(=O)NC(C)C(F)(F)F)c2n1 (stereo not shown) [III-142]	2.2 (≈ 5.45 µM)	–
COc1c(C#N)cccc1-c1cc(C)n2ncc(C(=O)N[C@@H](C)C3CC3)c2n1 [III-143]	17.4 (≈ 46.3 µM)	–
COc1cc(-c2cc(C)n3ncc(C(=O)N[C@@H](C)C4CC4)c3n2)ccc1F [III-145]	0.2 (≈ 0.543 µM)	–
COc1cc(F)ccc1-c1cc(C)n2ncc(C(=O)N[C@@H](C)C3CC3)c2n1 [III-146]	0.9 (≈ 2.44 µM)	–

SMILES	solubility [µg/mL]	Compound Solubility in Water [µg/mL]
COc1cc(-c2cc(C)n3ncc(C(=O)NC(C4CC4)C(F)(F)F)c3n2)ccc1F (stereo not shown) [III-147]	0.4 (≈ 0.947 µM)	–
COc1cc(-c2cc(C)n3ncc(C(=O)NC(C)C(F)(F)F)c3n2)ccc1F (stereo not shown) [III-148]	1.2 (≈ 3.03 µM)	–
COc1cc(F)ccc1-c1cc(C)n2ncc(C(=O)NC(C3CC3)C(F)(F)F)c2n1 (stereo not shown) [III-149]	1.1 (≈ 2.6 µM)	–
COc1cc(F)ccc1-c1cc(C)n2ncc(C(=O)NC(C)C(F)(F)F)c2n1 (stereo not shown) [III-150]	0.7 (≈ 1.77 µM)	–
Cc1cc(-c2ccc(F)cc2C#N)nc2c(C(=O)NC(C3CC3)C(F)(F)F)cnn12 (stereo not shown) [III-151]	0.1 (≈ 0.24 µM)	–
Cc1cc(-c2ccc(F)cc2C#N)nc2c(C(=O)N[C@@H](C)C3CC3)cnn12 [III-152]	0.5 (≈ 1.38 µM)	–
Cc1cc(-c2ccc(F)cc2C#N)nc2c(C(=O)N[C@H](C)C3CC3)cnn12 [III-153]	4.5 (≈ 12.4 µM)	–
Cc1cc(-c2ccc(F)cc2C#N)nc2c(C(=O)NC(C)C(F)(F)F)cnn12 (stereo not shown) [III-154]	0.7 (≈ 1.79 µM)	–
Cc1cc(-c2ccc(F)cc2C#N)nc2c(C(=O)N[C@@H](C)C(F)(F)F)cnn12 [III-156]	0.3 (≈ 0.767 µM)	–
Cc1cc(-c2ccc(F)c(C#N)c2)nc2c(C(=O)N[C@@H](C)C3CC3)cnn12 [III-157]	2.9 (≈ 7.98 µM)	–
Cc1cc(-c2ccc(F)c(C#N)c2)nc2c(C(=O)NC(C3CC3)C(F)(F)F)cnn12 (stereo not shown) [III-158]	0.3 (≈ 0.719 µM)	–
Cc1cc(-c2ccc(F)c(C#N)c2)nc2c(C(=O)NC(C)C(F)(F)F)cnn12 (stereo not shown) [III-159]	3.8 (≈ 9.71 µM)	–
Cc1cc(-c2ccc(F)c(C(N)=O)c2)nc2c(C(=O)N[C@@H](C)C3CC3)cnn12 [III-160]	1.1 (≈ 2.88 µM)	–
Cc1cc(-c2cccc(C(N)=O)n2)nc2c(C(=O)NC(C3CC3)C(F)(F)F)cnn12 (stereo not shown) [III-161]	1 (≈ 2.39 µM)	–
Cc1cc(-c2ccc(F)c(C(N)=O)c2)nc2c(C(=O)NC(C3CC3)C(F)(F)F)cnn12 (stereo not shown) [III-162]	1 (≈ 2.3 µM)	–
Cc1cc(-c2ccc(F)cc2)nc2c(C(=O)NC(C3CC3)C(F)(F)F)cnn12 (stereo not shown) [III-163]	0.4 (≈ 1.02 µM)	–
Cc1cc(-c2ccc(F)cc2)nc2c(C(=O)NC(C)C(F)(F)F)cnn12 (stereo not shown) [III-164]	1.1 (≈ 3 µM)	–
Cc1cc(NC2CC2)nc2c(C(=O)NC(C)C(F)(F)F)cnn12 (stereo not shown) [III-165]	4 (≈ 12.2 µM)	–
Cc1cc(NC2CC2)nc2c(C(=O)N[C@@H](C)C3CC3)cnn12 [III-166]	10.9 (≈ 36.4 µM)	–
Cc1cc(-c2ccc3ocnc3c2)nc2c(C(=O)N[C@H](C)C(F)(F)F)cnn12 [III-167]	0.7 (≈ 1.8 µM)	–
Cc1cc(-c2ccc3ocnc3c2)nc2c(C(=O)N[C@@H](C)C(F)(F)F)cnn12 [III-168]	0.3 (≈ 0.771 µM)	–
Cc1cc(-c2ccc3ocnc3c2)nc2c(C(=O)NC(C)C(F)(F)F)cnn12 (stereo not shown) [III-169]	1.6 (≈ 4.11 µM)	–
Cc1cc(-n2ccc(Cl)n2)nc2c(C(=O)NC(C)C(F)(F)F)cnn12 (stereo not shown) [III-170]	0.5 (≈ 1.34 µM)	–
Cc1cc(-n2ccc(F)n2)nc2c(C(=O)NC(C3CC3)C(F)(F)F)cnn12 (stereo not shown) [III-172]	0.5 (≈ 1.31 µM)	–
